The record followed here is patent US20120283175A1, “ANTIBACTERIAL COMPOSITIONS” (Achaogen, Inc., priority 2009, published 2012).

In brackets after ≈: the same amount, converted by molar mass. Entries after “also recorded” stand apart in the source; their conditions may differ. Read-outs that look alike come from different tables or passages of the source.

In one test the test system is envA+ (D21) E. coli. Nature of the test: MIC by broth microdilution, isogenic envA+ strain. Type of test: cell-based. As for the experimental part: (§1) Bacterial isolates were cultivated from −70° C. frozen stocks of the indicated strains by overnight passages at 35° C. in ambient air on Mueller-Hinton agar (Beckton Dickinson, Franklin Lakes, N.J.). Minimum Inhibitory Concentrations (MICs) were determined by the broth microdilution method in accordance with the Clinical and Laboratory Standards Institute (CLSI) guidelines. In brief, organism suspensions were adjusted to a 0.5 McFarland standard to yield a final inoculum between 3×10^5 and 7×10^5 colony-forming units (CFU)/mL. Drug dilutions and inocula were made in sterile, cation adjusted Mueller-Hinton Broth (Beckton Dickinson). An inoculum volume of 100 μL was added to wells containing 100 μL of broth with 2-fold serial dilutions of drug. All inoculated microdilution trays were incubated in ambient air at 35° C. for 18-24 hours. Following incubation, the lowest concentration of the drug that prevented visible growth (OD600 nm <0.05) was recorded as the MIC.
(In general: In broth dilution the organism is exposed to a series of concentrations in liquid medium.)

For another test, the system named is Pseudomonas aeruginosa. Nature of the test: Checkerboard synergy assay with LpxCi-4. Type of test: cell-based. To be noted: combination with LpxCi-4 (3936), Pseudomonas aeruginosa (ATCC27853 in text).
Text: (§2) One classic method for assessing synergy, referred to as the checkerboard assay, is used to predict the efficacy of antibacterial agents, and is described by Scribner et. al., (Antimicrobial Agents and Chemotherapy 21(6):939-943 (1982)) and in Goodman & Gilman (The Pharmacological Basis of Therapeutics, Sixth Edition, pp. 1097-1098 (1980)). The checkerboard assay involves serial two-fold dilutions of the antibiotics individually and in combination in broth, which is then inoculated with the microorganism to be tested. After incubation, the minimum inhibitory concentration (MIC) of each drug used individually and in combination is determined (N.B., the MIC is the lowest concentration of the drug that inhibits growth in the medium). Synergism is indicated by a decrease in the MIC of each drug when used in combination. Antagonism is indicated by an increase in the MIC of either or both drugs when used in combination. Alternate methods of assessing synergy are reviewed in Greco, et al., Pharmacological Reviews 47(2):[…] (1995), incorporated herein by reference in its entirety.
(§3) Partial or full inhibition of LpxC should compromise the outer membrane and thus allow these synergizing agents to enter the cells and exert an antibacterial effect at concentrations where cells untreated with an LpxC inhibitor are unaffected. As a first step, checkerboard synergy assays for a variety of antibacterial agents were perform with several LpxC inhibitors, on several species of gram negative bacteria.
as §1
(§4) Standard checkerboard assays were performed with a combination of the indicated agents and LpxCi-4. Table 2 provides the FICI calculated according to standard techniques.

In a further test the test system is Yersinia enterocolitica. Nature of the test: Checkerboard synergy assay with LpxCi-4. To be noted: combination with LpxCi-4. Type of test: cell-based.
Text: as §2, §3, §1, §4

The next test deals with Klebsiella pneumoniae. Nature of the test: Checkerboard synergy assay with LpxCi-4. Type of test: cell-based. As to conditions: combination with LpxCi-4.
Text: as §2, §3, §1, §4

A further test deals with E. coli ATCC25922. Nature of the test: MIC by broth microdilution, wild type strain ATCC25922. Type of test: cell-based. As to the method:
as §1

A further test relates to envA1 (D22) E. coli. Nature of the test: MIC by broth microdilution, isogenic envA1 mutant strain. Type of test: cell-based. To be noted: for MIC: Strain envA1 (D21); for Fold decrease in MIC (envA+/envA1): envA+ vs envA1 E. coli. As to the method: as §1
The test system of test [1] is P. aeruginosa (ATCC27853). To be noted: for ΔLogCFU vs 24 hr / Log CFU Mean: 24 hr; for Log CFU Mean: n=5. The text has this: (§5) The model was run essentially as described by Craig and others (see Gudmundsson et al., “Murine Thigh Infection Model,” Handbook of Animal Models of Infection, M. A. Sande and O. Zak, Eds.; London: Academic Press, 1999, pp 137-144). Briefly, mice were rendered neutropenic prior to infection with 2 doses of cyclophosphamide, and then infected intramuscularly in the thigh with inocula of 10^3-10^5 CFU of either K. pneumo. (ATCC43816) or P. aeruginosa (ATCC27853). Antibiotics or vehicle alone as a negative control were administered twice at 2 hrs and 14 hrs post-infection. The animals were kept neutropenic for the duration of the experiment in order to minimize the effect of white blood cells on the infection such that the microbiological readout measures the in vivo interaction of drugs and bacteria. At 24 hrs post-infection, thighs were harvested, homogenized, and plated to measure the number of CFUs surviving per thigh. Thighs from a subset of animals were also harvested 2 hrs post-infection to record the CFUs present just prior to the first antibiotic treatment (pre-treatment).
This table focuses on the sensitive part of the LpxCi-4 dose response curve (30 mg/kg) by examining the mean log CFU at 0 or 24 hours, as well as the log change in CFU at 24 hours relative to zero hours (“ΔLogCFU vs […]”). Data is given for animals treated with vehicle, LpxCi-4 at 30 mg/kg, a second agent alone at the indicated doses or the combination of LpxCi-4 at 30 mg/kg plus the second agent at the indicated dose. The standard errors for each measurement are also given (n=5 animals/group). By comparing the observed drop in CFU of the combination with the sum of the drop in CFU associated with each of the two agents given separately, one can determine whether the combination is, in fact, synergistic in vivo.

The test system of another test is K. pneumo. (ATCC43816). Nature of the test: Neutropenic thigh in vivo efficacy model (mice). Set-up: species or system Klebsiella pneumoniae. As to conditions: K. pneumo. (ATCC43816); summary.
Text: as §5

The mark [2] stands for this setting: second block of Table 5, mg/kg/day b.i.d.: 3936 30, Eryth. 60, Dapto. 3, Oxacil. 100.
Where [3] appears, read: first block of Table 5, mg/kg/day b.i.d.: 3936 30, Rif. 30, Azith. 50.

For orientation: MIC means the lowest concentration that inhibits growth of the organism. teicoplanin: the values for the MIC with envA+ (D21) E. coli, against E. coli ATCC25922 and in the test on envA1 (D22) E. coli were more than 256 µg/mL, more than 256 µg/mL and 32 µg/mL, respectively. In addition, the FICI index result is listed as “no effect” with Pseudomonas aeruginosa, “≦0.25” in the test on Yersinia enterocolitica and “≦0.37” in the test with Klebsiella pneumoniae. Further, the “Fold decrease in MIC (envA+/envA1)” value in the test with envA1 (D22) E. coli is “≧8”.

`CCC[C@@H]1C[C@@H](C(=O)N[C@@H]([C@H]2O[C@H](SC)[C@H](O)[C@@H](O)[C@H]2O)[C@H](C)Cl)N(C)C1` [Clindamycin, clindamycin]: the FICI index result in the test with Pseudomonas aeruginosa is given as “no effect”; in the test on Yersinia enterocolitica it was 0.13; in the test with Klebsiella pneumoniae, “≦0.5”.

`C[C@H]1COc2c(N3CCN(C)CC3)c(F)cc3c(=O)c(C(=O)O)cn1c23` [Levofloxacin]: the results for the FICI index entry in the test on Pseudomonas aeruginosa, in the test on Yersinia enterocolitica and in the test with Klebsiella pneumoniae were “no effect”, 0.63 and 0.5, respectively.

Consider `Nc1nc(/C(=N/O)C(=O)N[C@@H]2C(=O)N3C(C(=O)O)=C(/C=C4\CCN([C@@H]5CCNC5)C4=O)CS[C@H]23)ns1` [Ceftobioprole], for which the FICI index is listed as 0.5 in the test on Pseudomonas aeruginosa, 0.5 in the test with Yersinia enterocolitica and 0.63 with Klebsiella pneumoniae.

For the molecule `CCCCCCCCCC(=O)N[C@@H](Cc1c[nH]c2ccccc12)C(=O)N[C@H](CC(N)=O)C(=O)N[C@@H](CC(=O)O)C(=O)N[C@@H]1C(=O)NCC(=O)N[C@@H](CCCN)C(=O)N[C@@H](CC(=O)O)C(=O)N[C@H](C)C(=O)N[C@@H](CC(=O)O)C(=O)NCC(=O)N[C@H](CO)C(=O)N[C@@H]([C@H](C)CC(=O)O)C(=O)N[C@@H](CC(=O)c2ccccc2N)C(=O)O[C@@H]1C` [Daptomycin, daptomycin], the “ΔLogCFU vs 24 hr” value in test [1] (setting [2]) is on record as −1.04. Besides, the “Log CFU Mean” value in test [1] (setting [2]) came to 6.6. The MIC was 256 µg/mL (≈ 158 µM) against envA+ (D21) E. coli, more than 256 µg/mL in the test on E. coli ATCC25922 and 32 µg/mL (≈ 19.7 µM) in the test with envA1 (D22) E. coli. Besides, the FICI index entry in the test on Pseudomonas aeruginosa and with Klebsiella pneumoniae was “no measurable synergy; also recorded: no effect” throughout. Also, the “Fold decrease in MIC (envA+/envA1)” value in the test on envA1 (D22) E. coli was 8. For the same molecule, in the test with envA1 (D22) E. coli (isogenic envA1 (D22) vs envA+ (D21) E. coli), the “MIC shift due to modification of envA” value is reported as 8 ×.

As to `CO[C@H]1/C=C/O[C@@]2(C)Oc3c(C)c(O)c4c(O)c(c(/C=N/N5CCN(C)CC5)c(O)c4c3C2=O)NC(=O)/C(C)=C\C=C\[C@H](C)[C@H](O)[C@@H](C)[C@@H](O)[C@@H](C)[C@H](OC(C)=O)[C@@H]1C` [Rifampin, rifampin], in test [1] (setting [3]), the “ΔLogCFU vs 24 hr” value is listed as −0.28. In addition, the “Log CFU Mean” value in test [1] (setting [3]) is on record as 7.46. In addition, the “in vivo synergy with LpxC inhibitors” value in test [1] (P. aeruginosa (ATCC27853), summary) is reported as “surprising in vivo synergy”. Besides, the “drop in CFU relative to vehicle” value in test [1] (each agent at 30 mg/kg) is on record as 0.28 log. For the same molecule, the results for the MIC against envA+ (D21) E. coli, against E. coli ATCC25922 and in the test on envA1 (D22) E. coli were 16 µg/mL (≈ 19.4 µM), 16 µg/mL (≈ 19.4 µM) and 0.25 µg/mL (≈ 0.304 µM), respectively. Besides, the FICI index entry is on record as “≦1.0” in the test with Pseudomonas aeruginosa, less than 1.0 with Pseudomonas aeruginosa (listed as rifampin), 0.19 with Yersinia enterocolitica and “≦0.08” in the test on Klebsiella pneumoniae. The “in vivo synergy with multiple LpxC inhibitors” value with K. pneumo. (ATCC43816) was “surprising in vivo synergy”.

With gentamicin, the FICI index in the test with Pseudomonas aeruginosa stood at 0.38; in the test with Yersinia enterocolitica, 0.5; with Klebsiella pneumoniae, 0.75.

Consider `CO/N=C(\C(=O)N[C@@H]1C(=O)N2C(C(=O)O)=C(COC(C)=O)CS[C@H]12)c1csc(N)n1` [Cefotaxime, cefotaxime], for which the figures for the FICI index result with Pseudomonas aeruginosa, in the test on Yersinia enterocolitica and in the test on Klebsiella pneumoniae were “≦1.0”, “≦0.5” and 0.5, respectively.
